In series [1] the target is T1, Receptor-type tyrosine-protein phosphatase C (Homo sapiens, UniProt P08575).
T1 sequence (P08575 whole entry): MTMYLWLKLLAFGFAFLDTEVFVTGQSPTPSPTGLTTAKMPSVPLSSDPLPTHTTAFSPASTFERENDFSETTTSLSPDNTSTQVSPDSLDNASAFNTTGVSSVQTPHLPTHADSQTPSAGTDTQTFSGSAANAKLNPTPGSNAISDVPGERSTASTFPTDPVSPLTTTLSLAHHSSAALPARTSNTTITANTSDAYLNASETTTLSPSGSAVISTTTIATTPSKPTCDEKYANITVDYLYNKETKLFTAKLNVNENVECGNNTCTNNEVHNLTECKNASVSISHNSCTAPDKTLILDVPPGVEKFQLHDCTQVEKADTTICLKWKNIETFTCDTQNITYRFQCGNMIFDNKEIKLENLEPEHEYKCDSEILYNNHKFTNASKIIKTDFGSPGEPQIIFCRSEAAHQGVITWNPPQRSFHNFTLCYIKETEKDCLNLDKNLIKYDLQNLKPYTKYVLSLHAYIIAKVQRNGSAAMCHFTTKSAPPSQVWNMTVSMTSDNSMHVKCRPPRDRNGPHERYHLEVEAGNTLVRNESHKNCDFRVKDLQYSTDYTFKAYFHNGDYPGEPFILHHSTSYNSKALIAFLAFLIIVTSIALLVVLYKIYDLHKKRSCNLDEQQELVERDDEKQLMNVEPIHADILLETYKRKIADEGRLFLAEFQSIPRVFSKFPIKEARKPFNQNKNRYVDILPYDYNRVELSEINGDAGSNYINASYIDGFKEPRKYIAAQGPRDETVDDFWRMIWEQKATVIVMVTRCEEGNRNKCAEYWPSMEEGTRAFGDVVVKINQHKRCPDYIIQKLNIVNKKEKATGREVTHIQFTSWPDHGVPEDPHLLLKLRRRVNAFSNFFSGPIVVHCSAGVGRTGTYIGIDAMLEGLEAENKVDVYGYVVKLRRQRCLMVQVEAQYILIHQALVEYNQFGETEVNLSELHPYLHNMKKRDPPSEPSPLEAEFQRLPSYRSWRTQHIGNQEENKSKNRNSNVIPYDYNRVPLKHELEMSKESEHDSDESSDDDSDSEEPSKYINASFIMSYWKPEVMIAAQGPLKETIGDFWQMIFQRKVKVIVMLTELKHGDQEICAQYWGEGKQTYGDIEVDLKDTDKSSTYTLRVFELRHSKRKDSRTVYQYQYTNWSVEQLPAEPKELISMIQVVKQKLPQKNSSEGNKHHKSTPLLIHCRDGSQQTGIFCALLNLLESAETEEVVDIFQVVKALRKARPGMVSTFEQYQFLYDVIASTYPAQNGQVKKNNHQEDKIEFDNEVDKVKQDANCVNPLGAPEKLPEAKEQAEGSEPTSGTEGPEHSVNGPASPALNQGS
In words: Inhibition of CD45 by fluorescein diphosphate assay.

Series [2] deals with T2, Tyrosine-protein phosphatase non-receptor type 1 (Homo sapiens, UniProt P18031).
T2 sequence (P18031 whole entry): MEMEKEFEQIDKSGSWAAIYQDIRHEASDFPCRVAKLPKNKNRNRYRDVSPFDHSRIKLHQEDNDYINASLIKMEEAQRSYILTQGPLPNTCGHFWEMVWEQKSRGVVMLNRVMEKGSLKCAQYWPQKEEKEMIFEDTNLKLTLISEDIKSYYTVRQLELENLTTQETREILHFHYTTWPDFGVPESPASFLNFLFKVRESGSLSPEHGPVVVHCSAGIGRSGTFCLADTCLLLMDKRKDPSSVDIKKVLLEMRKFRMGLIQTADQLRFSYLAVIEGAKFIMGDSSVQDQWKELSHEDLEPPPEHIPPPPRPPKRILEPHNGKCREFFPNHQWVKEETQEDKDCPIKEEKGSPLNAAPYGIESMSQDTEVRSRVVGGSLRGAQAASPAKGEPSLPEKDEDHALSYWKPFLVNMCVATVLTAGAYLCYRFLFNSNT
The experiment in a line: Inhibition of PTP1B by fluorescein diphosphate assay.

Series [3] is described as follows: Cmax in mouse plasma at 20 mg/kg, po after 2 hrs. In kind it is ADME, organism-based. Also noted: dose 20 mg/kg, route oral.
The species named for series [4] is Mus musculus. In words: Inhibition of glucose excursion in DIO mouse glucose challenged 2 hrs before the oral glucose tolerance test. In kind it is functional.
Series [5] is described as follows: Elimination half life in Squirrel monkey at 5 mg/kg, iv and 10 mg/kg, po. The note with it: in vivo. In kind it is ADME, organism-based, Saimiri sciureus.
The nature of series [6]: Cmax in rat at 5 mg/kg, iv and 20 mg/kg, po. In kind it is ADME, organism-based. The note with it: in vivo.
Series [7] in a line: Oral bioavailability in rat at 5 mg/kg, iv and 20 mg/kg, po. The class given is ADME, organism-based. The note with it: in vivo.
A short description of series [8]: Elimination half life in DIO mouse at 5 mg/kg, iv and 20 mg/kg, po. In kind it is ADME, organism-based. Conditions: in vivo.
A short description of series [9]: Drug level in DIO mouse at 5 mg/kg, iv and 20 mg/kg, po after 24 hrs. The class given is ADME, organism-based. Conditions: in vivo, read-out: Drug uptake.
A short description of series [10]: Drug level in Squirrel monkey at 5 mg/kg, iv and 10 mg/kg, po after 24 hrs. The note with it: in vivo, read-out: Drug uptake. The class given is ADME, organism-based, Saimiri sciureus.
Series [11] has as its system Mus musculus. In words: Inhibition of glucose excursion in DIO mouse glucose challenged 2 hrs before the test at 10 mg/kg by oral glucose tolerance test. In kind it is functional.
Series [12] can be described thus: Drug level in rat at 5 mg/kg, iv and 20 mg/kg, po after 24 hrs. The class given is ADME, organism-based. Conditions: in vivo, read-out: Drug uptake.
The nature of series [13]: Oral bioavailability in DIO mouse at 5 mg/kg, iv and 20 mg/kg, po. The note with it: in vivo. In kind it is ADME, organism-based.
Series [14] can be described thus: Oral bioavailability in Squirrel monkey at 5 mg/kg, iv and 10 mg/kg, po. The note with it: in vivo. In kind it is ADME, organism-based, Saimiri sciureus.
Series [15] can be described thus: Cmax in Squirrel monkey at 5 mg/kg, iv and 10 mg/kg, po. In kind it is ADME, organism-based, Saimiri sciureus. The note with it: in vivo.
Series [16] in a line: Elimination half life in rat at 5 mg/kg, iv and 20 mg/kg, po. Conditions: in vivo. The class given is ADME, organism-based.
Series [17] deals with Mus musculus. The experiment in a line: Inhibition of glucose excursion in DIO mouse glucose challenged 2 hrs before the test at 3 mg/kg by oral glucose tolerance test. The class given is functional.
Series [18] concerns Mus musculus. In words: Inhibition of glucose excursion in DIO mouse glucose challenged 2 hrs before the test at 1 mg/kg by oral glucose tolerance test. In kind it is functional.
A short description of series [19]: Clearance in DIO mouse at 5 mg/kg, iv and 20 mg/kg, po. The class given is ADME, organism-based. The note with it: in vivo.
Series [20] is described as follows: Clearance in Squirrel monkey at 5 mg/kg, iv and 10 mg/kg, po. In kind it is ADME, organism-based, Saimiri sciureus. The note with it: in vivo.
Series [21] can be described thus: Clearance in rat at 5 mg/kg, iv and 20 mg/kg, po. The class given is ADME, organism-based. Conditions: in vivo.
The nature of series [22]: Cmax in DIO mouse at 5 mg/kg, iv and 20 mg/kg, po. In kind it is ADME, organism-based. Conditions: in vivo.
A short description of series [23]: Cmax in C57BL/6 mouse plasma at 10 mg/kg. In kind it is ADME, organism-based. Also noted: dose 10 mg/kg.
A short description of series [24]: Elimination half life in rat plasma. In kind it is ADME, organism-based.
Series [25] is described as follows: Cmax in rat plasma at 20 mg/kg. The class given is ADME, organism-based. Also noted: dose 20 mg/kg.
A short description of series [26]: Oral bioavailability in rat. The note with it: in vivo. The class given is ADME, organism-based.

For orientation: IC50 means the concentration needed to halve the response being measured. Consider `COCc1ccc2cc(Br)c(C(F)(F)P(=O)(O)O)cc2c1`, for which the IC50 in series [1] is > 50 µM; in [2], 510 nM.

By Cmax is commonly meant the highest concentration seen after dosing. As to `N#CCc1ccc2cc(Br)c(C(F)(F)P(=O)(O)O)cc2c1`, the IC50 was determined as 26.8 µM in series [1] and 90 nM in series [2]. In series [3], this compound returned a Cmax of 6 µM.

In the case of `CC(=O)NCc1ccc2cc(Br)c(C(F)(F)P(=O)(O)O)cc2c1`, the figures for the IC50 in series [1] and in [2] were > 50 µM and 1500 nM, respectively.

As for `CS(=O)(=O)Cc1ccc2cc(Br)c(C(F)(F)P(=O)(O)O)cc2c1`, the IC50 was > 50 µM in series [1] and 1300 nM in series [2].

For orientation: ED50 means the midpoint of the dose-response relation. By half-life is commonly meant the time needed for the level to fall by half in the phase considered. The bioavailability is the share of a dose that reaches the circulation, judged against a reference dose that is usually intravenous. For orientation: inhibition in vivo means the share of the control response that was lost under treatment. As for `N#Cc1ccc2cc(Br)c(C(F)(F)P(=O)(O)O)cc2c1`, in series [4], the ED50 was 0.8 mg/kg. Besides, the half-life in series [5] is > 1800 min; in series [8], 360 min; in series [16], > 1020 min. The Cmax in series [6] was found to be 75.6 µM; in series [15], 24 µM; in series [22], 17.4 µM. In addition, the bioavailability in series [7] was 4%; in series [13] it was 24%; in [14] it was 2%. Moreover, the IC50 in series [1] was > 50 µM. For the same compound, the concentration at 24 h in series [9] was found to be 9 µM; in series [10], 19 µM; in [12] it was 45.3 µM. In series [11], this compound gave an inhibition in vivo at 10 mg/kg of 100%. The compound also displayed an inhibition in vivo at 3 mg/kg in series [17] of 80%. In series [18], this compound gave an inhibition in vivo at 1 mg/kg of 60%. In addition, the clearance is 0.71 mL/min/kg in series [19], 1.2 mL/h/kg in [20] and 1.8 mL/h/kg in series [21].

For the compound `Cc1ccc2ccc(C(F)(F)P(=O)(O)O)cc2n1`, the IC50 in series [1] is > 50 µM; in series [2], > 50000 nM.

`N#Cc1ccc2cc(C(F)(F)P(=O)(O)O)c(Br)cc2c1`: the IC50 in series [1] was > 50 µM; in [2] it was 310 nM.

Consider `NC(=O)c1ccc2cc(Br)c(C(F)(F)P(=O)(O)O)cc2n1`, for which the figures for the IC50 in [1] and in series [2] were > 50 µM and 250 nM, respectively. In addition, in series [23], the Cmax amounted to 300 nM.

A word on the Ki: it is a dissociation constant, usually derived from enzyme kinetics or from competition with a known ligand. The compound `O=P(O)(O)C(F)(F)c1cc2ccccc2cc1Br` displayed an inhibition constant Ki in [2] of 179 µM.

Take `O=C(NCc1ccccc1)c1ccc2cc(Br)c(C(F)(F)P(=O)(O)O)cc2n1`: the values for the IC50 in series [1] and in [2] were > 50 µM and 45 nM, respectively.

With `O=C(Nc1cccc(F)c1)c1ccc2cc(Br)c(C(F)(F)P(=O)(O)O)cc2n1`, the IC50 in [1] is > 50 µM; in [2], 27 nM.

For `O=C(Nc1ccccc1)c1ccc2cc(Br)c(C(F)(F)P(=O)(O)O)cc2n1`, the IC50 in series [1] was > 50 µM; in series [2] it was 60 nM.

On to `O=P(O)(O)C(F)(F)c1cc2nc(/C=C/c3ccccc3)ccc2cc1Br`, for which the IC50 is > 50 µM in series [1] and 160 nM in series [2].

As for `Cc1ccc2cc(Br)c(C(F)(F)P(=O)(O)O)cc2n1`, the half-maximal inhibitory concentration (IC50) in series [1] was > 50 µM; in series [2] it was 14000 nM. Also, the half-life in series [24] is > 480 min. Besides, the Cmax in [25] came out at 43.3 µM. The bioavailability in [26] worked out at 5%.

`CNC(=O)c1ccc2cc(Br)c(C(F)(F)P(=O)(O)O)cc2n1`: the values for the IC50 in [1] and in [2] were > 50 µM and 1260 nM, respectively.

With `Cc1ccc2cc(Br)c(C(F)(F)P(=O)(O)O)cc2c1`, the results for the IC50 in series [1] and in series [2] were > 50 µM and 330 nM, respectively.

For `CC(Cc1ccc(C(F)(F)P(=O)(O)O)cc1)(c1ccccc1)n1nnc2ccccc21` (centres undefined), the IC50 amounted to 50 µM in series [1] and 16 nM in [2].

As to `O=C(O)c1cccc(/C=C/c2ccc3cc(Br)c(C(F)(F)P(=O)(O)O)cc3n2)c1`, the results for the IC50 in series [1] and in series [2] were 37.8 µM and 7 nM, respectively.

For `O=C(c1ccccc1)C(Cc1ccc(C(F)(F)P(=O)(O)O)c(Br)c1)c1ccccc1` (centres undefined), the IC50 in series [1] was > 50 µM.

These data come from ChEMBL document CHEMBL1143095, “Discovery of [(3-bromo-7-cyano-2-naphthyl)(difluoro)methyl]phosphonic acid, a potent and orally active small molecule PTP1B inhibitor” (Bioorg Med Chem Lett, 2008).
